In patent US20250034201A1, “PRODRUGS OF GANAXOLONE” (priority 2022, published 2025):
≈ marks a conversion by molar mass, not a printed value. Like-named read-outs stand apart in the source and are kept apart here.

Legend:
[1] = Measured solubility in buffer, LC-MS/MS; format: physicochemical; conditions: aqueous buffer, thermodynamic from solid
Description: […] The mixture was vortexed and a magnetic stirring bar was subsequently added to the vial. The vial was placed on a magnetic stirrer with constant stirring for 16-24 hours at room temperature. The pH of the top layer solution was measured. Subsequently, 200 μL of the top layer solution was placed in a 1.5 mL microcentrifuge tube and centrifuged at 18,000 g for 10 min at room temperature. A 10 μL aliquot of supernatant was added to 990 μL of methanol:water (1/:1, v/v) and vortexed. Then, one volume of acetonitrile containing internal standard was added to one volume of the above 100-fold diluted solution and the resulting solution was vortexed and placed in 96-well plate for LC-MS/MS analysis. […] LC-MS-MS analysis was performed utilizing multiple reaction monitoring for detection of characteristic ions for each test compound, additional related analytes and internal standard.

[2] = Stability in simulated gastric fluid (SGF); format: in vitro ADME; conditions: SGF with pepsin pH 1.2, 37° C.; for half-life: simulated gi fluid, 2 μg/mL, read-out: SGF t1/2
Description: (§1) The stability of exemplary compounds in simulated gastric fluid (SGF) and simulated intestinal fluid (SIF) was tested according to the following protocol.

[3] = Stability in simulated intestinal fluid (SIF); format: in vitro ADME; conditions: SIF with pancreatin pH 6.8, 37° C.; for half-life: simulated gi fluid, 2 μg/mL, read-out: SIF t1/2
Description: as §1

[4] = Rat liver microsomal stability; format: in vitro ADME; conditions: for half-life / microsomal CLint: rat liver microsomes 0.5 mg/mL, with NADPH; for half-life / microsomal CLint / Rat Liver Microsomal Stability no NADPH, % remain 1 h: compound 0.5 μM; for half-life: 37° C., read-out: Rat Liver Microsomal Stability t1/2; for microsomal CLint: read-out: Rat Liver Microsomal Stability CLint (uL/min/mg liver); for Comments: production of GNX (ganaxolone) in rat liver microsomes / Rat Liver Microsomal Stability no NADPH, % remain 1 h: rat liver microsomes
Description: (§2) For several compounds only human liver microsomal stability was tested. […] The microsomal assays were carried out with and without the addition of NADPH at a final concentration of 1 mM. For negative control samples, NADPH reagent was not added. […] Note that compounds undergo only Phase I metabolism in liver microsomes.
(§3) CLint=the intrinsic hepatic clearance (uL/min/mg), where CLint is equal to 0.693/(t1/2×Cmp)

in vitro [5] = format: in vitro ADME, human; conditions: compound 0.5 μM; for half-life / microsomal CLint: human liver microsomes 0.5 mg/mL, with NADPH; for half-life: 37° C., read-out: Human Liver Microsomal Stability t1/2; for microsomal CLint: read-out: Human Liver Microsomal Stability CLint (uL/min/mg liver) (converted); for Human Liver Microsomal Stability no NADPH, % remain 1 h: human liver microsomes
Description: as §2

[6] = Mouse liver microsomal stability; format: in vitro ADME
Description: as §2, §3
(§4) Certain compounds were also tested in mice and dog liver microsome assays according to the protocol outlined above. […].

[7] = Dog liver microsomal stability; format: in vitro ADME; conditions: for microsomal CLint / half-life: dog liver microsomes 0.5 mg/mL, compound 0.5 μM; for microsomal CLint: read-out: Dog Liver Microsomal Stability CLint (uL/min/mg liver); for half-life: read-out: Dog Liver Microsomal Stability t1/2; for Dog Liver Microsomal Stability no NADPH, % remain 1 h: dog liver microsomes
Description: as §2, §3, §4

in vitro [8] = conditions: for Human plasma t90 / Rat plasma t90: 2 μg/mL, 37° C.
Description: The plasma stability of exemplary compounds was tested using rat, mice, dog, and human plasma, according to the following protocol. For each test compound, samples at a final concentration of 2 μg/mL were prepared in blank plasma of selected species. All samples were incubated at 37° C. on a 150-RPM orbital shaker, and an aliquot was removed at pre-determined time points (0, 15, 30, 60, and 120 minutes). Samples were precipitated with three volumes of acetonitrile containing propranolol as internal standard, and centrifuged for 10 min at 2000 g before LC/MS/MS analysis of the supernatant solutions.

Mouse plasma stability = format: in vitro ADME; conditions: 2 μg/mL, 37° C.
Dog plasma stability = format: in vitro ADME; conditions: dog plasma; for Dog plasma t90 / half-life: 2 μg/mL, 37° C.; for half-life: read-out: Dog plasma Half life (t1/2)
[9] = Pharmacokinetic study with Compound 111 (IV 5 mg/kg, PO 25 mg/kg); format: in vivo; conditions: analyte Compound 111, fasted male beagle dogs, mean; for AUC(0-t): read-out: Compound 111 PK AUClast; for MRT inf: read-out: Compound 111 PK MRTInf; for half-life: read-out: Compound 111 PK t1/2 (converted); for Vd: male, beagle, iv, 5 mg/kg
Description: (§5) […]; n=3) and oral (PO) administration (25 mg/kg; n=3) in fasted male beagle dogs.

[10] = Pharmacokinetic study with Compound 218 (IV 5 mg/kg, PO 25 mg/kg); format: in vivo; conditions: dog, plasma, fasted male beagle dogs; for AUC(0-t): read-out: Compound 218 PK AUClast; for MRT inf: read-out: Compound 218 PK MRTInf; for half-life: read-out: Compound 218 PK t1/2 (converted); for Vd: male, beagle, 5 mg/kg
Description: as §5

[11] = pH 7.4, 50 mM phosphate buffer, 16-24 hours, room temperature, read-out: Solubility pH 7.4
[12] = buffer, pH 2.0, room temperature, read-out: Solubility pH 2.0
[13] = dog, plasma, IV 5 mg/kg Compound 111
[14] = dog, plasma, oral 25 mg/kg Compound 111
[15] = analyte Compound 218, IV 5 mg/kg Compound 218, mean
[16] = analyte Compound 218, oral 25 mg/kg Compound 218, mean

CC(=O)[C@H]1CC[C@H]2[C@@H]3CC[C@H]4C[C@](C)(OC(=O)CN)CC[C@]4(C)[C@H]3CC[C@]12C [Compound 111]
solubility [1, 11]: 29.1 µg/mL (≈ 74.7 µM) | solubility [1, 12]: 1520 µg/mL (≈ 3900 µM) | SGF (% remain, 60 min) [2]: 95% | half-life [2]: 12.4 h | SIF (% remain, 60 min) [3]: 79.0% | half-life [3]: 4.27 h | Comments: production of GNX (ganaxolone) in rat liver microsomes [4]: In rat no GNX produced; | half-life [4]: 5.58 h | microsomal CLint [4]: 4.13 µL/min/mg | Rat Liver Microsomal Stability no NADPH, % remain 1 h [4]: 99.7% | half-life (in vitro [5]): 3.17 h | microsomal CLint (in vitro [5]): 7.28 µL/min/mg | Human Liver Microsomal Stability no NADPH, % remain 1 h (in vitro [5]): 82.6% | microsomal CLint ([6]; mouse liver microsomes 0.5 mg/mL, compound 0.5 μM, read-out: Mouse Liver Microsomal Stability CLint (uL/min/mg liver)): 11.8 µL/min/mg | half-life ([6]; mouse liver microsomes 0.5 mg/mL, compound 0.5 μM, read-out: Mouse Liver Microsomal Stability t1/2): 1.97 h | Mouse Liver Microsomal Stability no NADPH, % remain 1 h ([6]; mouse liver microsomes, no NADPH, 1 h): 92.7% | microsomal CLint [7]: 4.95 µL/min/mg | half-life [7]: 4.67 h | Dog Liver Microsomal Stability no NADPH, % remain 1 h [7]: 92.3% | Human plasma t90 (in vitro [8]): 542 min | half-life (in vitro [8]; human, plasma): 60 h | Rat plasma t90 (in vitro [8]): 132 min | half-life (in vitro [8]; rat, plasma): 14.6 h | Mouse plasma t90 (Mouse plasma stability): 67.2 min | half-life (Mouse plasma stability; read-out: Mouse plasma Half life (t1/2)): 7.43 h | Dog plasma t90 (Dog plasma stability): 243 min | half-life (Dog plasma stability): 26.8 h | Compound 111 PK AUCInf/D ([9]; oral 25 mg/kg Compound 111): 68.7 kg·ng·h/mL/mg | AUC(0-inf) ([9]; dog, plasma, IV 5 mg/kg Compound 111, read-out: Compound 111 PK AUCinf): 2790 ng·h/mL | AUC(0-t) [9, 13]: 2740 ng·h/mL | C0 ([9]; dog, plasma, IV 5 mg/kg Compound 111, read-out: Compound 111 PK C0): 1500 ng/mL | clearance ([9]; dog, plasma, IV 5 mg/kg Compound 111, read-out: Compound 111 PK CL): 31.7 mL/min/kg | MRT inf [9, 13]: 3.68 h | half-life [9, 13]: 3.54 h | AUC(0-inf) ([9]; dog, plasma, oral 25 mg/kg Compound 111, read-out: Compound 111 PK AUCInf): 1720 ng·h/mL | AUC(0-t) [9, 14]: 1570 ng·h/mL | Cmax ([9]; dog, plasma, oral 25 mg/kg Compound 111, read-out: Compound 111 PK Cmax): 177 ng/mL | MRT inf [9, 14]: 10.6 h | Tmax ([9]; dog, plasma, oral 25 mg/kg Compound 111, read-out: Compound 111 PK Tmax): 2.67 h | half-life [9, 14]: 7.15 h | bioavailability ([9]; dog, plasma, oral 25 mg/kg vs IV 5 mg/kg Compound 111, read-out: Compound 111 PK F (%)): 11.4% | Vd ([9]; dog, plasma, IV 5 mg/kg Compound 111, read-out: Compound 111 PK Vss): 6.71 L/kg | Vd ([9]; dog, plasma, IV 5 mg/kg Compound 111, read-out: Compound 111 PK Vz): 9.47 L/kg

CC(=O)[C@H]1CC[C@H]2[C@@H]3CC[C@H]4C[C@](C)(OC(=O)COC(=O)C(C)(C)N)CC[C@]4(C)[C@H]3CC[C@]12C [Compound 218]
solubility [1, 11]: 152 µg/mL (≈ 320 µM) | solubility [1, 12]: 16900 µg/mL (≈ 35500 µM) | SGF (% remain, 60 min) [2]: 97% | half-life [2]: 35 h | SIF (% remain, 60 min) [3]: 95% | half-life [3]: 22.7 h | Comments: production of GNX (ganaxolone) in rat liver microsomes [4]: In rat no GNX produced; | half-life [4]: 0.94 h | microsomal CLint [4]: 26 µL/min/mg | Rat Liver Microsomal Stability no NADPH, % remain 1 h [4]: 83% | half-life (in vitro [5]): 0.24 h | microsomal CLint (in vitro [5]): 95.3 µL/min/mg | Human Liver Microsomal Stability no NADPH, % remain 1 h (in vitro [5]): 10.0% | microsomal CLint [7]: 69 µL/min/mg | half-life [7]: 0.335 h | Dog Liver Microsomal Stability no NADPH, % remain 1 h [7]: 44.4% | Human plasma t90 (in vitro [8]): 8.6 min | Observations: stability / GNX production in human plasma (in vitro [8]; human, plasma): No GNX produced | half-life (in vitro [8]; human, plasma): 0.948 h | Rat plasma t90 (in vitro [8]): 8.5 min | Observations: stability / GNX production in rat plasma (in vitro [8]; rat, plasma): GNX produced in rat | half-life (in vitro [8]; rat, plasma): 0.938 h | Observations: stability / GNX production in dog plasma (Dog plasma stability): No GNX produced | Dog plasma t90 (Dog plasma stability): 783 min | half-life (Dog plasma stability): 86.6 h | AUC(0-inf) ([10]; analyte Compound 218, IV 5 mg/kg Compound 218, mean, read-out: Compound 218 PK AUCinf): 2200 ng·h/mL | AUC(0-t) [10, 15]: 2130 ng·h/mL | C0 ([10]; analyte Compound 218, IV 5 mg/kg Compound 218, mean, read-out: Compound 218 PK C0): 2750 ng/mL | clearance ([10]; analyte Compound 218, IV 5 mg/kg Compound 218, mean, read-out: Compound 218 PK CL): 37.9 mL/min/kg | MRT inf [10, 15]: 5.03 h | half-life [10, 15]: 17.7 h | AUC(0-inf) ([10]; analyte Compound 218, oral 25 mg/kg Compound 218, mean, read-out: Compound 218 PK AUCInf): 415 ng·h/mL | AUC(0-t) [10, 16]: 359 ng·h/mL | Cmax ([10]; analyte Compound 218, oral 25 mg/kg Compound 218, mean, read-out: Compound 218 PK Cmax): 89.8 ng/mL | MRT inf [10, 16]: 6.38 h | Tmax ([10]; analyte Compound 218, oral 25 mg/kg Compound 218, mean, read-out: Compound 218 PK Tmax): 1.17 h | half-life [10, 16]: 6.13 h | bioavailability ([10]; analyte Compound 218, oral 25 mg/kg vs IV 5 mg/kg Compound 218, mean, read-out: Compound 218 PK F (%)): 3.76% | Vd ([10]; intravenous, Compound 218 administered, read-out: volume of distribution (Vd) (dose/Co)): 1.82 L/kg | Vd ([10]; iv, analyte Compound 218, IV 5 mg/kg Compound 218, mean, read-out: Compound 218 PK Vss): 11.4 L/kg | Vd ([10]; iv, analyte Compound 218, IV 5 mg/kg Compound 218, mean, read-out: Compound 218 PK Vz): 57.5 L/kg
